Data published in patent publication US20020127717A1, “Preparation of replicating macrophages and use in diagnosis and therapy” (priority 2000, published 2002).

How the values were obtained:
[1] = biological target: T1, Ulex Europaeus-I Agglutimin (UEA-I) (Ulex europaeus, UniProt P22972); assay: FITC-UEA-I lectin binding to acetone-fixed cells, specificity control; conditions: 0.2M, room temperature, 30 minutes preincubation
T1 construct: purchased Vector Laboratories, Inc
T1 sequence (P22972 1-243): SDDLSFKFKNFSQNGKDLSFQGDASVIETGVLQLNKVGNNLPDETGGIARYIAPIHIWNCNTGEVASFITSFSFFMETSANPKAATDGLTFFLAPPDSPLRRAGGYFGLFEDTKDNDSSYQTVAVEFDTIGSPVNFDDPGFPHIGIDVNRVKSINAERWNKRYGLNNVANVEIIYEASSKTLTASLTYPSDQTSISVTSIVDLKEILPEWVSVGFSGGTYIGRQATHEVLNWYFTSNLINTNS
Protocol: FITC-conjugated Ulex Europaeus-I Agglutimin (UEA-I) (Vector Laboratories, Inc.) was incubated with acetone-fixed cells at 37° C. for 1 hour. The specificity of UEA-I, the lectin was determined by preincubating with 0.2M […] (Sigma), at room temperature for 30 minutes.

[2] = system: human Kupffer cell isolates (KC-1, KC-2, KC-3); assay: DNA synthesis assay (3H-Thymidine), stimulation by growth factors, Kupffer cell isolates; format: cell-based; parameters: key to Stimulation Index of Cultured Target cells: ratio: uptake with stimulatory agent / uptake in medium alone; conditions: for effect on DNA synthesis of KC isolates (in words): KC isolates grown 21 days in MCG medium, summary of Table 3
Protocol: (§1) DNA Synthesis Assay: DNA synthesis was determined by culturing the cells with ^3H-Thymidine as is standard in the art. The KC isolates used in the assay were at day 21 post liver isolation. The normal endothelial cells and foreskin fibroblasts were cultured in media consisting of RPMI-1640, fetal bovine serum 20% supplemented with specific factors as described in Nakamura S and Salahuddin SZ, Science 242: 426-430,1988. KC isolates were cultured as described above. Cells were harvested between 4 hours and 18 hours culture depending on the stimulatory agent used. A stimulation index was calculated by dividing radioactivity incorporated into cells with the stimulatory agent versus cells in culture medium alone.
(§2) Various growth factors were tested for their ability to stimulate growth of the human Kupffer cell isolates (KC-3) and other cell types. KC isolates used in this experiment were grown in culture for 21 days with MCG medium.

[3] = system: Human Foreskin Fibroblast Cells (HSF); assay: DNA synthesis assay (3H-Thymidine), stimulation by growth factors, HSF; format: cell-based; conditions: HFS
Protocol: as §1
(§3) Cultured Cells: Human umbilical vein endothelial cells (HUV-E) were prepared as described in Nakamura et al, Science 1988. Bovine capillary endothelial cells (BCE) were a gift from Dr. Peter Biberfeld of Karolinska Institute, Stockholm, Sweden. Normal human foreskin fibroblasts (HSF) were obtained from the American Type Tissue Culture Collection (ATCC), Rockville, Md. (CRL-1635).
as §2

[4] = system: Bovine Capillary Endothelial Cells (BCE); assay: DNA synthesis assay (3H-Thymidine), stimulation by growth factors, BCE; format: cell-based
Protocol: as §1, §3, §2

[5] = system: Human Umbilical Vein Endothelial Cells (HUV-E); assay: DNA synthesis assay (3H-Thymidine), stimulation by growth factors, HUVE; format: cell-based
Protocol: as §1, §3, §2

[6] = system: human Kupffer cell isolates (KC-1, KC-2, KC-3); assay: DNA synthesis assay (3H-Thymidine), stimulation by growth factors, Kupffer cell isolates; format: cell-based; parameters: key: ratio: uptake with stimulatory agent / uptake in medium alone

Molecule	binding of UEA-I after preincubating the lectin [1]	effect on DNA synthesis of KC isolates (in words) [2]	Stimulation Index of Cultured Target cells ([2]; KC-3, HC (hydrocortisone) +)	Stimulation Index of Cultured Target cells ([2]; KC-3, HC (hydrocortisone) −)	Stimulation Index of Cultured Target cells ([3]; HC (hydrocortisone) +)	Stimulation Index of Cultured Target cells ([3]; HC (hydrocortisone) −)	Stimulation Index of Cultured Target cells ([4]; HC (hydrocortisone) +)	Stimulation Index of Cultured Target cells ([4]; HC (hydrocortisone) −)	Stimulation Index of Cultured Target cells ([5]; HC (hydrocortisone) +)	Stimulation Index of Cultured Target cells ([5]; HC (hydrocortisone) −)	Stimulation Index of Cultured Target cells ([6]; KC-1, HC (hydrocortisone) +)	Stimulation Index of Cultured Target cells ([6]; KC-1, HC (hydrocortisone) −)	Stimulation Index of Cultured Target cells ([6]; KC-2, HC (hydrocortisone) +)	Stimulation Index of Cultured Target cells ([6]; KC-2, HC (hydrocortisone) −)
O=C(CO)[C@H](O)[C@@H](O)[C@@H](O)CO [L-fructose]	No binding was observed													
BFGF: bFGF = Fibroblast Growth Factor β, Lot # 14765800, Boehringer Manheim		little to no effect	1.2	1.2	1.9	2.2	2.3	6.2	15.4	35.4	0.5	0.8	0.5	0.6
EGF: epidermal growth factor		little to no effect	0.6	1.2	1.1	2.8	2.9	6.8		25.4	0.9	1.2	0.9	1.1
PDGF		little to no effect	1.1	1.4	1.5	1.4	1.8	4.4	20.2	10.0	1.1	1.2	1.2	1.4
TNFα			1.2		0.8		1.2		1.0		0.8		0.9	
